Earlier results, collected in patent US9919015B2, “Composition and method for inhibiting herpesviridae infections” (VIRATEC PTY LTD, priority 2005, dated 2018).
Where two headings read alike, the source gives them in different places.

Legend:
[1] = test system: recurrent genital herpetic infection; conditions: for healing rate, oral acyclovir: Nilsen et al. (1982); for healing rate, topical acyclovir: Corey et al. (1982)
[2] = test system: primary herpetic gingivostomatitis; conditions: Primary Herpetic Stomatitis
[3] = test system: recurrent herpes labialis; conditions: treatment commenced within 1 hour; Rabon et al. (1989)
[4] = test system: Oral Hairy Leukoplakia (EBV)
herpes zoster = conditions: Esmann et al. (1982); Bean et al (1983)

**Q.** With `Nc1nc2c(ncn2COCCO)c(=O)[nH]1` [Acyclovir, acyclovir] as the compound, how does the “healing rate, oral acyclovir” value [1] read?
**A.** 5 days oral

**Q.** What about the “healing rate, oral acyclovir” value ([1]; listed as acyclovir) of the same compound?
**A.** 5 days

**Q.** And the “healing rate, topical acyclovir” value [1]?
**A.** 7.4 days topical

**Q.** And the “healing rate, topical acyclovir” value ([1]; listed as acyclovir)?
**A.** 7.4 days

**Q.** And the “Expected healing time Acyclovir (upper end)” value [2]?
**A.** ≤ 4 weeks

**Q.** And the “Expected healing time Acyclovir” value ([2]; treated symptomatically or with acyclovir, listed as acyclovir)?
**A.** 10 to 28 days

**Q.** What about the “complete healing with acyclovir” value [3] of the same compound?
**A.** 7 to 8 days

**Q.** What about the “time to analgesia with acyclovir” value [3] of the same compound?
**A.** 1 to 2 days

**Q.** And the “response, subjects” value ([4]; oral acyclovir, after 10 days, Resnick et al (1988))?
**A.** 5/6

**Q.** And the “response time with oral acyclovir” value ([4]; Herbst et al. (1989), Resnick et al (1988))?
**A.** 10-20 days - oral

**Q.** What about the “response time with oral acyclovir” value ([4]; Herbst et al. (1989), Resnick et al (1988), listed as acyclovir) of the same compound?
**A.** 10 to 20 days

**Q.** And the “resolution of OHL, subjects” value ([4]; systemic acyclovir, after 20 days, Herbst et al. (1989))?
**A.** 12/14

**Q.** What about the “time to initial crusting with acyclovir” value (herpes zoster) of the same compound?
**A.** 2 to 3 days
